Read-outs that look alike come from different tables or passages of the source. Blank lines part the entries; values can stand above or below the compound they belong to.
What was measured:
[1] = statement from literature; cited from earlier work
[2] = tested on: RKO cells; experiment: CRC cell proliferation assay (CCK8), RKO; assay type: cell-based; conditions: Homo sapiens
Experimental: (§1) Three CRC cell lines HT29, HCT116 and RKO were used in this study. The American Type Culture Collection (ATCC; Manassas, Va., USA) provided human CRC cell lines HT29 (ATCC HTB-38; mutant TP53, p.R273H; APC frame shift, p. E1554fs; wild type β-catenin), HCT116 (ATCC CCL-247; wild type TP53; wild type APC; deletion β-catenin, p. S45del) and RKO (ATCC CRL-2577; wild type TP53; wild type APC; wild type β-catenin). Three CRC cells lines as listed above were cultured in adherent culture condition, maintained at 37° C. inside the cell incubation containing 5% CO2. The two cell lines of HCT-116 and HT-29 cells were cultured in McCoy's 5A medium with supplemented 10% fetal bovine serum (Gibco; Thermo Fischer Scientific, Grand Island, N.Y., USA)), 1% penicillin and 1% streptomycin. RKO cell was cultured in MEM medium with supplemented 10% FBS, 1% penicillin, 1% streptomycin and 1% sodium pyruvate. The cell cultures were passaged by trypsinization every three days. BM-BMX (BMX), (E)-2-(4-Methoxybenzyloxy)-3-prenyl-4-methoxy-N-hydroxycinamide, was provided by Nature Wise Biotech & Medicals Corporation (Taipei, Taiwan).
(§2) We plated 4000 CRC cells per well in 96-well plates and allowed them to adhere overnight. To validate cell line responsiveness to BMX and TMZ monotherapy, the cells were treated with different doses of BMX or TMZ for 24, 48, and 72 hrs. To confirm cell responsiveness to the BMX-TMZ combination, cells were either treated with different doses of TMZ ([…]) with or without BMX (5 μM) for 24, 48, and 72 hrs or with different doses of BMX (0-10 μM) with or without TMZ (50 μM) for 24, 48, and 72 hrs. Following treatment, the absorption value was measured using a CCK8 kit (Targetmol, Shanghai, China) at the indicated time points. The results are reported as the mean±standard deviation of at least three replicates.

[3] = tested on: HT29 cells; experiment: CRC cell proliferation assay (CCK8), HT29; assay type: cell-based; conditions: Homo sapiens
Experimental: as §1, §2

[4] = tested on: U87MG cells; experiment: Cell proliferation/viability assay (CCK8 kit; text says MTT), U87MG; assay type: cell-based; conditions: Homo sapiens, U-87 MG, single agent, FIG. 2B/2C, read-out: IC50 values (alone)
Text: (§3) Four GBM cell lines U87, U87R, A172, and A172R were used in this study. The American Type Culture Collection (ATCC; Manassas, Va., USA) provided human GBM cell lines U87-MG (ATCC HTB-14; GBM of unknown origin) and A172 (ATCC CRL-1620; ATCC). U87R and A172R cells were obtained from Dr. Tsung-I Hsu and Dr. Jian-Ying Chung (The Ph.D. Program for Neural Regenerative Medicine, College of Medical Science and Technology, Taipei Medical University, Taipei, Taiwan). These cells were maintained in Dulbecco's modified Eagle medium (DMEM) with 10% fetal bovine serum (FBS) and 50 μM TMZ for at least 60 days. TMZ resistance in U87R and A172R cells was confirmed using the colony formation assay (FIG. 11). Cells were cultured in DMEM supplemented with 10% FBS, 100 U/mL penicillin, […] streptomycin (all from Gibco; Thermo Fisher Scientific, Waltham, Mass., USA) and maintained in a humidified incubator at 37° C. and 5% CO2. NBM-BMX (BMX), (E)-2-(4-Methoxybenzyloxy)-3-prenyl-4-methoxy-N-hydroxycinamide, was provided by NatureWise Biotech & Medicals Corporation (Taipei, Taiwan).
(§4) We plated 3000 GBM cells per well in 96-well plates and allowed them to adhere overnight. […] Following treatment, the absorption value was measured using a CCK8 kit (Targetmol, Shanghai, China) at the indicated time points. […]

[5] = tested on: MGMT; experiment: Western blot of MGMT in GBM-R cells; assay type: cell-based, human; conditions: A172-R and U87MG-R cells; 50 μM TMZ without or with 5 and 10 μM BMX; 48 hrs; FIG. 5B, 5C
Experimental: The cells were collected and lysed in RIPA lysis buffer (EMD Millipore Billerica, Mass., USA, 10×RIPA buffer) containing a protease inhibitor. Protein concentration was determined using a protein assay kit (Bio-Rad Laboratories, Hercules, Calif., USA). The SDS loading buffer was mixed with the protein samples. Proteins (20 μg/lane) were separated using 8%-12% SDS-PAGE and transferred to a PVDF membrane, which was blocked with 5% bovine serum albumin at room temperature for 1 hr in tris-buffered saline (TBS)-Tween 20 (0.5%; TBS-T), incubated with primary antibodies overnight at […], and then incubated with horseradish peroxidase (HRP)-conjugated secondary antibodies at room temperature for 1 hr. After washing thoroughly with TBS-T, the HRP signals were detected with a chemical HRP substrate. Signal of each target protein was visualized by incubation with an enhanced chemiluminescent reagent and exposure to X-ray film.

[6] = tested on: U87MG-R cells; experiment: Cell proliferation/viability assay (CCK8 kit; text says MTT), U87MG-R; assay type: cell-based; conditions: Homo sapiens; U87MG-R cells (TMZ-resistant); single agent; FIG. 2B/2C; read-out: IC50 values (alone)
Text: as §3, §4

[7] = tested on: A172-R cells; experiment: Cell proliferation/viability assay (CCK8 kit; text says MTT), A172-R; assay type: cell-based; conditions: Homo sapiens; A172-R cells (TMZ-resistant); single agent; FIG. 2B/2C; read-out: IC50 values (alone)
Text: as §3, §4

[8] = tested on: A172 cells; experiment: Cell proliferation/viability assay (CCK8 kit; text says MTT), A172; assay type: cell-based; conditions: Homo sapiens, A 172, single agent, FIG. 2B/2C, read-out: IC50 values (alone)
Text: as §3, §4

- IC50 ([3]; HT-29, 24 h, BMX 5 μM combined with different doses of TMZ, 24 hrs, read-out: IC50 of TMZ): > 400 µM
- IC50 ([3]; HT-29, 24 h, TMZ alone, 24 hrs, read-out: IC50 of TMZ): > 1000 µM
- IC50 ([3]; HT-29, 48 h, BMX 5 μM combined with different doses of TMZ, 48 hrs, read-out: IC50 of TMZ): 128 ± 18.3 µM
- IC50 ([3]; HT-29, 48 h, TMZ alone, 48 hrs, read-out: IC50 of TMZ): 931 ± 47.7 µM
- IC50 ([3]; HT-29, 72 h, TMZ alone, 72 hrs, read-out: IC50 of TMZ): 258 ± 20.5 µM
- IC50 [4]: 81 ± 1.68 µM
- IC50 [6]: 303 ± 15.2 µM
SMILES: Cn1nnc2c(C(N)=O)ncn2c1=O [TMZ, Temozolomide, reference compound]
- blood-brain barrier penetration [1]: good penetration of the blood-brain barrier
- IC50 ([2]; 24 h, BMX 5 μM combined with different doses of TMZ, 24 hrs, read-out: IC50 of TMZ): > 400 µM
- IC50 ([2]; 24 h, TMZ alone, 24 hrs, read-out: IC50 of TMZ): > 1000 µM
- IC50 ([2]; 48 h, BMX 5 μM combined with different doses of TMZ, 48 hrs, read-out: IC50 of TMZ): 21.9 ± 2.7 µM
- IC50 ([2]; 48 h, TMZ alone, 48 hrs, read-out: IC50 of TMZ): 992 ± 52.4 µM
- IC50 ([2]; 72 h, TMZ alone, 72 hrs, read-out: IC50 of TMZ): 380 ± 40.3 µM
- MGMT expression [5]: moderately suppress MGMT expression
- IC50 [7]: 595 ± 23.4 µM
- IC50 [8]: 73.5 ± 3.65 µM

- IC50 ([3]; HT-29, 24 h, BMX alone, 24 hrs, read-out: IC50 of BMX): 42.6 ± 2.4 µM
- IC50 ([3]; HT-29, 24 h, TMZ 50 μM combined with different concentrations of BMX, 24 hrs, read-out: IC50 of BMZ): > 10 µM
- IC50 ([3]; HT-29, 48 h, BMX alone, 48 hrs, read-out: IC50 of BMX): 9.9 ± 0.5 µM
- IC50 ([3]; HT-29, 48 h, TMZ 50 μM combined with different concentrations of BMX, 48 hrs, read-out: IC50 of BMZ): 9.1 ± 0.2 µM
- IC50 ([3]; HT-29, 72 h, BMX alone, 72 hrs, read-out: IC50 of BMX): 2.9 ± 0.2 µM
- IC50 ([3]; HT-29, 72 h, TMZ 50 μM combined with different concentrations of BMX, 72 hrs, read-out: IC50 of BMZ): 2.2 ± 0.1 µM
- IC50 [4]: 29.8 ± 2.32 µM
- IC50 [6]: > 68.1 µM
SMILES: COc1ccc(COc2c(/C=C/C(=O)NO)ccc(OC)c2CC=C(C)C)cc1 [BMX, (E)-2-(4-Methoxybenzyloxy)-3-prenyl-4-methoxy-N-hydroxycinamide]
- blood-brain barrier penetration [1]: ability to cross the blood-brain barrier
- IC50 ([2]; 24 h, BMX alone, 24 hrs, read-out: IC50 of BMX): 38.5 ± 3.5 µM
- IC50 ([2]; 24 h, TMZ 50 μM combined with different concentrations of BMX, 24 hrs, read-out: IC50 of BMZ): > 10 µM
- IC50 ([2]; 48 h, BMX alone, 48 hrs, read-out: IC50 of BMX): 7.2 ± 0.6 µM
- IC50 ([2]; 48 h, TMZ 50 μM combined with different concentrations of BMX, 48 hrs, read-out: IC50 of BMZ): 3.6 ± 0.4 µM
- IC50 ([2]; 72 h, BMX alone, 72 hrs, read-out: IC50 of BMX): 1.5 ± 0.2 µM
- IC50 ([2]; 72 h, TMZ 50 μM combined with different concentrations of BMX, 72 hrs, read-out: IC50 of BMZ): 0.9 ± 0.1 µM
- MGMT expression [5]: moderately decrease MGMT levels
- IC50 [7]: > 52.6 µM
- IC50 [8]: 21 ± 2.34 µM

Reference: US11980594B2, “Composition and method for treating a drug-resistant cancer” (NOVELWISE PHARMACEUTICAL CORPORATION, priority 2021, dated 2024)
